ChEMBL document CHEMBL4715706, “Discovery of Benzotriazolo[4,3-d][1,4]diazepines as Orally Active Inhibitors of BET Bromodomains” (ACS Med Chem Lett, 2016)

Columns and labels:
[1] = molecular target: Bromodomain-containing protein 3 (Homo sapiens, UniProt Q15059); assay: Inhibition of BRD3 BD1 (unknown origin) using biotinylated JQ1 analog as substrate measured after 20 mins by AlphaLISA assay
[2] = molecular target: T1, Bromodomain and PHD finger-containing protein 3 (Homo sapiens, UniProt Q9ULD4); assay: Inhibition of BRPF3 (unknown origin) measured after 70 mins by TR-FRET assay
T1 sequence (Q9ULD4 whole entry): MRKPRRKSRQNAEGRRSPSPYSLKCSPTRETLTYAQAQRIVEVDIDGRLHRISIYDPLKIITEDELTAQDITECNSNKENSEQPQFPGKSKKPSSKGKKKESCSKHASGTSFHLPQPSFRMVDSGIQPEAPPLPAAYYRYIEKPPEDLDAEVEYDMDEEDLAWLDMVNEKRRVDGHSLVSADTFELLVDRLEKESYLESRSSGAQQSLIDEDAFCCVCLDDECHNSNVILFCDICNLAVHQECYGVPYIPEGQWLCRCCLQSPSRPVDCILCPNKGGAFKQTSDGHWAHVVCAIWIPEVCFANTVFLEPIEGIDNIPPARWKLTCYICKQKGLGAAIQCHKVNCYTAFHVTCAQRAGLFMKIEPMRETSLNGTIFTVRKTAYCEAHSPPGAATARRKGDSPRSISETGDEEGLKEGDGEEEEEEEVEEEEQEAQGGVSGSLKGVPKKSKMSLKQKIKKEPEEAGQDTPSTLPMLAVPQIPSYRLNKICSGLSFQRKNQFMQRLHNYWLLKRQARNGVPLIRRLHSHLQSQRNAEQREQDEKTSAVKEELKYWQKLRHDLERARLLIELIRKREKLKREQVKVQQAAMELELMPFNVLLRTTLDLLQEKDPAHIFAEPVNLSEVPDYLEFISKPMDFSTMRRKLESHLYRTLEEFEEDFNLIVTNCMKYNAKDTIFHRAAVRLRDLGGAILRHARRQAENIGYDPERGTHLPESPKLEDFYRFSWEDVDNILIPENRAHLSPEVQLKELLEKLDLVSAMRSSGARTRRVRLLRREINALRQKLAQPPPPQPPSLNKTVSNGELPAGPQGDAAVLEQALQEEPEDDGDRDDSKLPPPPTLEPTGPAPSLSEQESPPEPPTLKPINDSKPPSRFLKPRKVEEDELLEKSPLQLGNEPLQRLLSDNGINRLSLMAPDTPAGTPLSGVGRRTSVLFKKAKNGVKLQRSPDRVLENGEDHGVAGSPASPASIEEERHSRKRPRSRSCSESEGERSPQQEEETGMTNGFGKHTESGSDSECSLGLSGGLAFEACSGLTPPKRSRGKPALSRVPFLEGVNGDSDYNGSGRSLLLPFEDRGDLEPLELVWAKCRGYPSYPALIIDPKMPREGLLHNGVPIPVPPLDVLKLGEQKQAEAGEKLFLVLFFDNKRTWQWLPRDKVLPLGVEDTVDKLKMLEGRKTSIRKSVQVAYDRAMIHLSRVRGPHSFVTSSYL

[3] = molecular target: SWI/SNF-related matrix-associated actin-dependent regulator of chromatin subfamily A member 4 (Homo sapiens, UniProt P51532); assay: Inhibition of His-tagged BRG1 (unknown origin) using biotinylated acetylated peptide as substrate measured after 20 mins by AlphaLISA assay
[4] = AUClast in rat at 10 mg/kg, po; assay type: ADME, organism-based; design: time 0 - last, route oral, dose 10 mg/kg; settings: in vivo
[5] = molecular target: T2, Bromodomain-containing protein 2 (Homo sapiens, UniProt P25440); assay: Inhibition of BRD2 BD2 (unknown origin) using biotinylated JQ1 analog as substrate measured after 20 mins by AlphaLISA assay
[6] = Intrinsic clearance in human liver microsomes
[7] = Oral bioavailability in rat at 10 mg/kg; assay type: ADME, organism-based; settings: in vivo
[8] = Intrinsic clearance in dog liver microsomes
[9] = Clearance in rat at 1 mg/kg, iv relative to liver blood flow; assay type: ADME, organism-based; settings: in vivo
[10] = molecular target: T3, Bromodomain-containing protein 1 (Homo sapiens, UniProt O95696); assay: Inhibition of BRD1 (unknown origin) measured after 70 mins by TR-FRET assay
T3 sequence (O95696 whole entry): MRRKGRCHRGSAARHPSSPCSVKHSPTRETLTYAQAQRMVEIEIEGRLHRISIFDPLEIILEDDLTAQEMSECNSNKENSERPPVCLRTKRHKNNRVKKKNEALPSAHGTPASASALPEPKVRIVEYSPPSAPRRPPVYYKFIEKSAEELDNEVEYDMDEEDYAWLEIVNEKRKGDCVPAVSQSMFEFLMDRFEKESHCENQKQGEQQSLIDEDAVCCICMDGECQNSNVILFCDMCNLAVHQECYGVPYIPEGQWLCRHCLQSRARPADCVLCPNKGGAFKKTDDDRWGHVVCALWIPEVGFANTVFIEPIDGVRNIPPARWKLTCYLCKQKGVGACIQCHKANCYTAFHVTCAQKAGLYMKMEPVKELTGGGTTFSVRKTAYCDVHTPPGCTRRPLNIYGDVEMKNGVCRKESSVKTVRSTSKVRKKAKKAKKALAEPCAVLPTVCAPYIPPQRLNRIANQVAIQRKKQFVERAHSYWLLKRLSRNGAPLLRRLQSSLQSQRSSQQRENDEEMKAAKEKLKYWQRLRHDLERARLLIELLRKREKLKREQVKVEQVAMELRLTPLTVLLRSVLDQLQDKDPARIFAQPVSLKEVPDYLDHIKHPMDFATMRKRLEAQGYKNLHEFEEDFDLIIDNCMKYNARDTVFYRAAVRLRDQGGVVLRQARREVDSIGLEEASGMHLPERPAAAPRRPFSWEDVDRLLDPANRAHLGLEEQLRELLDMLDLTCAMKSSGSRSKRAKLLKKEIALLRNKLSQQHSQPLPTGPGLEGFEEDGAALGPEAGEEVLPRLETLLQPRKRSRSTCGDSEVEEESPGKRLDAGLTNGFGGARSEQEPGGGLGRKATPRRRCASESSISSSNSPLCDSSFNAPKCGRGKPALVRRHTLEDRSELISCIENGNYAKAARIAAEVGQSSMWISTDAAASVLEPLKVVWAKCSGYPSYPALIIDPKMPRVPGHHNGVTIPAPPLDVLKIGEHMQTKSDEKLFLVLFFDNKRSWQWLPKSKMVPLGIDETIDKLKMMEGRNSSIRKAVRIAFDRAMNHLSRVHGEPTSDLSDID

[11] = molecular target: Bromodomain testis-specific protein (Homo sapiens, UniProt Q58F21); assay: Inhibition of BRDT BD2 (unknown origin) using biotinylated JQ1 analog as substrate measured after 20 mins by AlphaLISA assay
[12] = Intrinsic clearance in rat liver microsomes
[13] = molecular target: T2, Bromodomain-containing protein 2; assay: Inhibition of BRD2 BD1 (unknown origin) using biotinylated JQ1 analog as substrate measured after 20 mins by AlphaLISA assay
[14] = Protein binding in mouse plasma
[15] = Protein binding in rat plasma; assay type: ADME, cell-free; settings: read-out: PPB (converted)
[16] = Unbound clearance in rat at 1 mg/kg, iv; assay type: ADME, organism-based; settings: in vivo

T2 sequence (P25440 whole entry): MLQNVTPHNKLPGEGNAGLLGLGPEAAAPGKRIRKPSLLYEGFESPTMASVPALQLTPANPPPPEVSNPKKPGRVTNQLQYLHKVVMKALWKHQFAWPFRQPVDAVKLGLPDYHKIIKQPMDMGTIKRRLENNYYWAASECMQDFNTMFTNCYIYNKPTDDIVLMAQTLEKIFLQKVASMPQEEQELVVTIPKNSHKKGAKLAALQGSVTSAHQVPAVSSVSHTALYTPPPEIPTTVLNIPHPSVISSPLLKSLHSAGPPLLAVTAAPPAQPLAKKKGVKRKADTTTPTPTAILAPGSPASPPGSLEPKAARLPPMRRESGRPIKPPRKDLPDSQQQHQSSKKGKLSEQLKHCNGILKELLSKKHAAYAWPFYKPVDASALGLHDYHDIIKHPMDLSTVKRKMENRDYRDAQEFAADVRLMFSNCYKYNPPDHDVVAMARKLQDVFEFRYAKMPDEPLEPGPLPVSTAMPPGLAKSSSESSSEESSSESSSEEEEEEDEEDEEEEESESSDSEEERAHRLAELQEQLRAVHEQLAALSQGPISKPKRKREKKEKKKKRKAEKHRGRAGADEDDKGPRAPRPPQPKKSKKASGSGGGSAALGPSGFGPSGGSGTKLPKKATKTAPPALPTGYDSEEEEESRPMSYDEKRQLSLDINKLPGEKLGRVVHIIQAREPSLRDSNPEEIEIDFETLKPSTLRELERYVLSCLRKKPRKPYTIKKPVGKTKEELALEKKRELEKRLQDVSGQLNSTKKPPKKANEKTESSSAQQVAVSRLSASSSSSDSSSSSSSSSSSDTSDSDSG
Chain of SWI/SNF-related matrix-associated actin-dependent regulator of chromatin subfamily A member 4 (P51532 whole entry): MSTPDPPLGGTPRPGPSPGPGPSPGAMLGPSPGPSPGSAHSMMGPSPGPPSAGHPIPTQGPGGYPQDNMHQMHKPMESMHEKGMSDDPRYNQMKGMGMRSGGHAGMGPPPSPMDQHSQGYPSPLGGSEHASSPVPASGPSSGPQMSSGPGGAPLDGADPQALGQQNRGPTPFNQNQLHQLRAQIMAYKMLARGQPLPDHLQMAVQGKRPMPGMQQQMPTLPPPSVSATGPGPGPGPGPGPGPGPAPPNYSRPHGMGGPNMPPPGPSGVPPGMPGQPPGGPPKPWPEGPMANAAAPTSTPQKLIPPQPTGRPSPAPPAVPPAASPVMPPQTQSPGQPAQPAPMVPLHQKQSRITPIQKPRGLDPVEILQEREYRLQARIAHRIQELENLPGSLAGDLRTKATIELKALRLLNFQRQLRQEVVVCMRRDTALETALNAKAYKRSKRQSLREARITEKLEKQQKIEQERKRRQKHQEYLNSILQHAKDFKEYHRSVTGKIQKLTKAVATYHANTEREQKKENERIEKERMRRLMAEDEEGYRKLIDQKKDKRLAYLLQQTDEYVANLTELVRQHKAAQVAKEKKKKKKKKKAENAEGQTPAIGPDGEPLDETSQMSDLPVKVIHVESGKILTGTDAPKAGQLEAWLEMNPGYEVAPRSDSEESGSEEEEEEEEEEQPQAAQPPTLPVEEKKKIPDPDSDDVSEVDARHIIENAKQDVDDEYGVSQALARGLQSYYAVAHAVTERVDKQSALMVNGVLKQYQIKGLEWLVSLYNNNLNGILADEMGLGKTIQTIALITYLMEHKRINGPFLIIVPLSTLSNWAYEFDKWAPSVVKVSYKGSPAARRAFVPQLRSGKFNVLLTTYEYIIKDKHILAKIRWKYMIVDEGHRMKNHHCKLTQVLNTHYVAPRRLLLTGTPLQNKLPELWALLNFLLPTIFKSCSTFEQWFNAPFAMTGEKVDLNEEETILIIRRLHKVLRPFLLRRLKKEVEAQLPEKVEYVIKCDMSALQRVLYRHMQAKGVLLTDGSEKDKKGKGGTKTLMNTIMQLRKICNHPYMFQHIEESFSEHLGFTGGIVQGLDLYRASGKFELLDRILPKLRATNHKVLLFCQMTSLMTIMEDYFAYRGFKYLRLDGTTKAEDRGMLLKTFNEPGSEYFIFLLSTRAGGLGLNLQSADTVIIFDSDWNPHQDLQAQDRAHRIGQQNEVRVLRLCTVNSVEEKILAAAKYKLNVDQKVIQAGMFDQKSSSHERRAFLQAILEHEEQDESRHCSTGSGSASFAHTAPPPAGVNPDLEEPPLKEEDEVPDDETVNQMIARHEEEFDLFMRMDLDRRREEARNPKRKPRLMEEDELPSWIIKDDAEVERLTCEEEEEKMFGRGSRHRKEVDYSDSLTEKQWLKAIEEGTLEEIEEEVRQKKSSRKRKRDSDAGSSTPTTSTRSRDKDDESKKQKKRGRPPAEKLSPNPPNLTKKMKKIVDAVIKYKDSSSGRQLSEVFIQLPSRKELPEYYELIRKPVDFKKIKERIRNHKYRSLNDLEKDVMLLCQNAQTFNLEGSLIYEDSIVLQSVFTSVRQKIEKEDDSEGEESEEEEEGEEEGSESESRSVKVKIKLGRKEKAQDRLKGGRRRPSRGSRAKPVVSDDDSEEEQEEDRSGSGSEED
Chain of Bromodomain-containing protein 3 (Q15059 whole entry): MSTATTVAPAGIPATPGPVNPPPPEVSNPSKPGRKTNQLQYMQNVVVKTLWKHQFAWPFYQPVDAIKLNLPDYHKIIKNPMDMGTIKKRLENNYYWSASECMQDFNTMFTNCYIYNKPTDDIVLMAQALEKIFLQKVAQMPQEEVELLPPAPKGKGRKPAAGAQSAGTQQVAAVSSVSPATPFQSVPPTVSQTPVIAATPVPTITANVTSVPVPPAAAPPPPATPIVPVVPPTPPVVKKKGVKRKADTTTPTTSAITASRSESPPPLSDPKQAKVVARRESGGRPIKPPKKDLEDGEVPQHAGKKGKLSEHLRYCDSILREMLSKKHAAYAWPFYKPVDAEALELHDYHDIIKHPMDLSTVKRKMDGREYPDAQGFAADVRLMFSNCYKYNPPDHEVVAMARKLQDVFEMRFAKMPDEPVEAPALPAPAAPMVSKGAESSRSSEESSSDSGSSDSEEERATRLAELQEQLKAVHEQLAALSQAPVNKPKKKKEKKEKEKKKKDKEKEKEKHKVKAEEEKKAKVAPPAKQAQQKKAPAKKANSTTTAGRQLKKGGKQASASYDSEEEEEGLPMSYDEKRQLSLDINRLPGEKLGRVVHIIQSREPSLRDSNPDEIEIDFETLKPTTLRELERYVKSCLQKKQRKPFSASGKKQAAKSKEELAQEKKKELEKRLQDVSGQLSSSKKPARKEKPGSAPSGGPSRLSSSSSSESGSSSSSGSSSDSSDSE

IC50 [1]: 3 nM
IC50 [2]: > 15000 nM
IC50 [3]: > 15000 nM
AUC(0-t) [4]: 1.4 µM·h
IC50 [5]: 3 nM
microsomal CLint [6]: 5.1 µL/min/mg
bioavailability [7]: 23%
microsomal CLint [8]: 19 µL/min/mg
CL [9]: 90%
IC50 [10]: > 15000 nM
IC50 [11]: 3 nM
microsomal CLint [12]: 26 µL/min/mg
IC50 [13]: 3 nM
fraction unbound [14]: 0.02
fraction unbound [15]: 0.04
CL free [16]: 1580 mL/min/kg
SMILES: Cc1nnc2n1-c1ccc(-c3ccc(N)nc3)cc1N(c1ccc(Cl)cc1)C[C@H]2C
